Reference: patent US6066642A, “Dihydropyridine-, pyridine-, benzopyran-4-one- and triazoloquinazoline derivative, their preparation and their use as adenosine receptor antagonists” (priority 1998, dated 2000)

Key:
U-937 cells [1] = assay: live cell counting with trypan blue (cell death/proliferation), U-937 cells; assay type: cell-based
Method: (§1) The HL-60 cells were maintained in RPMI 1640 supplmented with 10% fetal calf serum, 100 units/ml penicillin, […] streptomycin and 2 mM L-glutamine. The cells were split every third day, and 2 days before each experiment cultures were diluted to 2×10^5 cells/ml. For analysis of DNA content, aliquots of 2 ml were placed into 12-well flat-bottomed plates (Costar, Cambridge, Mass., U.S.A.) containing 2~6 μl test-compound solutions at defined concentrations or 6 μl DMSO (diluting medium). Live cell counting was carried out using 0.1% trypan blue.
(§2) In the latter assay, cell death was studied in HL-60 cells (FIGS. 11A-B) and in U-937 cells (FIGS. 11C-D) over a time course of 9 days. Cells in culture receiving no drug treatment proliferated geometrically until nearly the end of the experiment.

[2] = test system: bak protein in U-937 cells; assay: expression of apoptosis-inducing protein bak by immunofluorescence, U-937 cells; assay type: cell-based
Method: (§3) Cells were fixed as following steps: 10 min with 1% formalin in PBS, 5 min with […] methanol and 2 min with ice cold acetone, then permebilized with 0.1% Nonidet P-40 for 20 min. After the preparation, the specimens were incubated step by step: 10% goat serum in PBS for 20 min, mouse monoclonal anti-bak antibody (5 μg/ml PBS-BSA) for 60 min, Rhodamine (TRITC)-conjugated AffiniPure Goat Anti-mouse IgG (H+L) in PBS-BSA for 60 min. The specimens were washed 3-5 times with PBS after every step. The glass slides were stored at 4° C. in the dark.
(§4) The mechanism of the apoptosis observed in response to either A3 agonists was investigated.

HL-60 cells [3] = assay: live cell counting with trypan blue (cell death/proliferation), HL-60 cells; assay type: cell-based
Method: as §1, §2

HL-60 cells [4] = assay: in situ end-labeling of fragmented nuclear DNA (TUNEL), HL-60 cells; assay type: cell-based
Method: (§5) Cells were fixed by immersing slides in 4% methanol-free formaldehyde in PBS at pH 7.4, 4° C., for 25 min. Fixed cells were permeabilized in 0.2% Triton® X-100 in PBS at 4° C. for 5 min. After preincubation with […] Promega equilibration buffer for 10 min at room temperature, the cells were covered with 50 μl TdT incubation buffer and a coverslip and maintained at 37° C. for 60 min inside the dark humidified chamber to protect from dry and direct light. In order to stop the reaction, the coverslip was removed and the slides were immersed in 2×SSC for 15 min at room temperature. The cells were restained by propidium iodide 1 μg/ml in PBS for 15 min. After every step, the cells were rinsed 2-3 times with fresh PBS for 5 min each. Finally, the glass slides were sealed with nail polish. The slides were stored at 4° C. in the dark.
(§6) The evidence that DNA strand breaks, characteristic of apoptosis, are induced by the A3 antagonists was obtained using in situ end-labelingin-situ of fragmented nuclear DNA by terminal deoxynucleotidyl transferase (TUNEL method, Cooke, H., Trends in Biotech., 10, 23 (1992)), which incorporates a fluorescent label at the 3'-ends. […] In the control cultures and in those treated with 10 nM Cl-IB-MECA alone, spontaneous apoptosis occured in only 5-7% of the cells (Table 17). […] The reversal of antagonist-induced apoptosis by the agonist is similar to that observed for the growth curves, except that both agonist and antagonist were applied at lower concentrations.

U-937 cells [5] = assay: in situ end-labeling of fragmented nuclear DNA (TUNEL), U-937 cells; assay type: cell-based
Method: as §5, §6

[6] = test system: bak protein in HL-60 cells; assay: expression of apoptosis-inducing protein bak by immunofluorescence, HL-60 cells; assay type: cell-based
Method: as §3, §4

adenosine receptors = conditions: pancreatic islets; cited from earlier work
adenosine receptor = conditions: [3H]cyclohexyladenosine and [3H]1,3-diethyl-8-phenylxanthine; cited from earlier work
[7] = test system: bak in 1321N astrocytoma cells; assay: expression of bak, 1321N cells; assay type: cell-based; conditions: 10 μM
Method: as §3
(§7) Various other cell lines were investigated for the expression of bak in response to the A3 agonist.

HL-60 cells [8] = assay: apoptosis by flow cytometric DNA analysis, HL-60 cells; assay type: cell-based
Method: DNA content analysis by flow cytometry:
(§8) Cells were fixed by adding ~10^7 cells suspended in 1 ml of PBS of 1 ml 80% ethanol at -20° C. and stored for 48-120 hrs. After the cells were washed twice with PBS, the cells were stained with 20 mg/ml chromomycin A3 dissolved in PBS containing 2 mM MgCl2 by incubation in subdued light (30 min; 4° C.). The cells were then analyzed using a FACScan flow cytometer (Becton Dickinson, Mountain View, Calif.).

[9] = test system: bak in MCF7 breast adenocarcinoma cells; assay: expression of bak, MCF7 cells; assay type: cell-based; conditions: 10 μM
Method: as §3, §7

U-937 cells [10] = assay: apoptosis by flow cytometric DNA analysis, U-937 cells; assay type: cell-based
Method: DNA content analysis by flow cytometry:
as §8

[11] = antagonist 0.5 μM plus 0.01 or 1.0 μM Cl-IB-MECA
[12] = Table 17, antagonist 50 nM plus Cl-IB-MECA 10 nM, 48 hour
[13] = Table 17, antagonist 50 nM, 48 hour
[14] = sublethal concentrations incl. 10 nM
[15] = 10 nM Cl-IB-MECA with either antagonist
[16] = 10 nM alone, range covers both cell lines and controls
[17] = Table 17, Cl-IB-MECA 10 nM, 48 hour

**Q.** With `CN1C=CC2=C(CC(=O)O)Cn3nc(-c4ccccc4)nc3C2=C1` [Compound L-249313, 6-carboxymethyl-5,9-dihydro-9-methyl-2-phenyl-[1,2,4]triazolo[5,1-a][2,7]-naphthyridine] as the molecule, how does the “inhibition of proliferation, U-937” value (U-937 cells [1]; 0.5 μM alone) read?
**A.** general inhibition of proliferation of cells

**Q.** What about the “growth curve with A3 antagonist plus Cl-IB-MECA, U-937” value (U-937 cells [1]; [11]) of the same molecule?
**A.** the growth curves were nearly coincident with control curves

**Q.** And the “bak labeling, U-937” value ([2]; 24 hours)?
**A.** present

**Q.** And the “inhibition of proliferation, HL-60” value (HL-60 cells [3]; 0.5 μM alone)?
**A.** general inhibition of proliferation of cells

**Q.** And the “growth curve with A3 antagonist plus Cl-IB-MECA, HL-60” value (HL-60 cells [3]; [11])?
**A.** the growth curves were nearly coincident with control curves

**Q.** And the “fluorescent labeling of apoptotic cells, HL-60” value (HL-60 cells [4]; 50 nM, 24 h, approximately)?
**A.** 30-40%

**Q.** And the “Percentage of apoptotic cells, HL-60, + Cl-IB-MECA” value (HL-60 cells [4]; [12])?
**A.** 12.0 Percentage

**Q.** What about the “Percentage of apoptotic cells, HL-60” value (HL-60 cells [4]; [13]) of the same molecule?
**A.** 31.2 Percentage

**Q.** And the “fluorescent labeling of apoptotic cells, U-937” value (U-937 cells [5]; 50 nM, 24 h, approximately)?
**A.** 30-40%

**Q.** And the “Percentage of apoptotic cells, U937, + Cl-IB-MECA” value (U-937 cells [5]; [12])?
**A.** 10.9 Percentage

**Q.** What about the “Percentage of apoptotic cells, U937” value (U-937 cells [5]; [13]) of the same molecule?
**A.** 30.8 Percentage

**Q.** What about the “bak labeling, HL-60” value ([6]; 24 hours) of the same molecule?
**A.** present

**Q.** With `COC(=O)C1=C(C)NC(C)=C(C(=O)OC)C1c1ccccc1[N+](=O)[O-]` [Compound 60, nifedipine] as the molecule, how does the “interaction with adenosine receptors mediating inhibition of insulin secretion” value (adenosine receptors) read?
**A.** may not interact with adenosine receptors

**Q.** What about the “effect on adenosine receptor binding” value (adenosine receptor) of the same molecule?
**A.** potent in reducing the binding

**Q.** Which results are given for `COc1ccc(CCN(C)CCCC(C#N)(c2ccc(OC)c(OC)c2)C(C)C)cc1OC` (stereo not drawn) [verapamil]?
**A.** interaction with adenosine receptors mediating inhibition of insulin secretion (adenosine receptors): may not interact with adenosine receptors; effect on adenosine receptor binding (adenosine receptor): negligible effects on adenosine receptor binding

**Q.** For `CNC(=O)[C@H]1O[C@@H](n2cnc3c(NCc4cccc(I)c4)nc(Cl)nc32)[C@H](O)[C@@H]1O` [Cl-IB-MECA, N^6-(3-iodobenzyl)-2-chloro-adenosine-5'-N-methyluronamide], which “expression of bak, 1321N” value [7] is on record?
**A.** found to induce the expression of bak

**Q.** What about the “growth curve, U-937” value (U-937 cells [1]; 0.01 or 1.0 μM alone, 9 days) of the same molecule?
**A.** no deviation from this growth curve was observed

**Q.** And the “effect of agonist on impairment of proliferation by antagonist, U-937” value (U-937 cells [1]; [14])?
**A.** reversed the impairment of cell proliferation

**Q.** And the “general cell death at lower concentrations, U-937” value (U-937 cells [1]; ≤1 μM, trypan blue)?
**A.** did not significantly promote

**Q.** What about the “concentration at which plateau of apoptosis begins, HL-60” value (HL-60 cells [8]; 48 hours) of the same molecule?
**A.** approximately 10 μM

**Q.** What about the “plateau in the percent of apoptotic cells, HL-60” value (HL-60 cells [8]; 48 hours) of the same molecule?
**A.** 30-50%

**Q.** What about the “apoptosis in HL-60 cells” value (HL-60 cells [8]; high concentrations (≥μM)) of the same molecule?
**A.** caused apoptosis

**Q.** What about the “apoptosis at lower concentrations, HL-60” value (HL-60 cells [8]; ≤1 μM) of the same molecule?
**A.** did not significantly promote apoptosis

**Q.** And the “expression of bak, U-937” value ([2]; 30 μM)?
**A.** induced a significant level of expression of bak

**Q.** And the “expression of bak, U-937” value ([2]; ≤1 μM)?
**A.** not concentrations ≤1 μM

**Q.** And the “expression of bak, MCF7” value [9]?
**A.** found to induce the expression of bak

**Q.** And the “growth curve, HL-60” value (HL-60 cells [3]; 0.01 or 1.0 μM alone, 9 days)?
**A.** no deviation from this growth curve was observed

**Q.** What about the “death of HL-60 cells in culture” value (HL-60 cells [3]; 20 or 40 μM, after 4 days) of the same molecule?
**A.** > 90%

**Q.** What about the “effect of agonist on impairment of proliferation by antagonist, HL-60” value (HL-60 cells [3]; [14]) of the same molecule?
**A.** reversed the impairment of cell proliferation

**Q.** What about the “general cell death at lower concentrations, HL-60” value (HL-60 cells [3]; ≤1 μM, trypan blue) of the same molecule?
**A.** did not significantly promote

**Q.** And the “coadministration with antagonist, apoptotic cells, HL-60” value (HL-60 cells [4]; [15])?
**A.** suppressed the increase in apoptotic cells

**Q.** What about the “apoptosis (TUNEL), Cl-IB-MECA alone, HL-60” value (HL-60 cells [4]; [16]) of the same molecule?
**A.** 5-7%

**Q.** And the “DNA fragmentation labeling (TUNEL), HL-60” value (HL-60 cells [4]; 30 μM)?
**A.** approximately 50%

**Q.** And the “Percentage of apoptotic cells, HL-60, Cl-IB-MECA alone” value (HL-60 cells [4]; [17])?
**A.** 7.1 Percentage

**Q.** And the “coadministration with antagonist, apoptotic cells, U-937” value (U-937 cells [5]; [15])?
**A.** suppressed the increase in apoptotic cells

**Q.** And the “apoptosis (TUNEL), Cl-IB-MECA alone, U-937” value (U-937 cells [5]; [16])?
**A.** 5-7%

**Q.** What about the “DNA fragmentation labeling (TUNEL), U-937” value (U-937 cells [5]; 30 μM) of the same molecule?
**A.** approximately 50%

**Q.** What about the “Percentage of apoptotic cells, U937, Cl-IB-MECA alone” value (U-937 cells [5]; [17]) of the same molecule?
**A.** 5.6 Percentage

**Q.** And the “expression of bak, HL-60” value ([6]; 30 μM)?
**A.** induced a significant level of expression of bak

**Q.** And the “expression of bak, HL-60” value ([6]; ≤1 μM)?
**A.** not concentrations ≤1 μM

**Q.** What about the “concentration at which plateau of apoptosis begins, U-937” value (U-937 cells [10]; 48 hours) of the same molecule?
**A.** approximately 10 μM

**Q.** What about the “plateau in the percent of apoptotic cells, U-937” value (U-937 cells [10]; 48 hours) of the same molecule?
**A.** 30-50%

**Q.** And the “apoptosis in U-937 cells” value (U-937 cells [10]; high concentrations (≥μM))?
**A.** A similar response was observed

**Q.** What about the “apoptosis at lower concentrations, U-937” value (U-937 cells [10]; ≤1 μM) of the same molecule?
**A.** did not significantly promote apoptosis
